#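 48-hour exposure; five concentrations; linearly interpolated endpoints. TGI marks complete inhibition of growth.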
# Tests used:
# Experiment in all cases: NCI-60 cell line screen, 48 h
# [1] = test system: OVCAR-3 ovarian
# [2] = test system: SF-539 CNS
# [3] = test system: IGROV1 ovarian
# [4] = test system: DLD-1 colon
# [5] = test system: SNB-19 CNS
# [6] = test system: LXFL 529 NSCLC
# [7] = test system: OVCAR-4 ovarian
# [8] = test system: EKVX NSCLC
# [9] = test system: CAKI-1 renal
# [10] = test system: 786-0 renal
# [11] = test system: SN12C renal
# [12] = test system: SNB-75 CNS
# [13] = test system: A549 NSCLC
# [14] = test system: HCT-116 colon
# [15] = test system: XF 498 CNS
# [16] = test system: M19-MEL melanoma
# [17] = test system: TK-10 renal
# [18] = test system: MOLT-4 leukemia
# [19] = test system: M14 melanoma
# [20] = test system: SK-MEL-28 melanoma
# [21] = test system: RXF 393 renal
# [22] = test system: NCI-H460 lung
# [23] = test system: HOP-18 NSCLC
# [24] = test system: OVCAR-5 ovarian
# [25] = test system: RPMI-8226 leukemia
# [26] = test system: U251 CNS
# [27] = test system: NCI-H226 lung
# [28] = test system: KM20L2 colon
# [29] = test system: SF-295 CNS
# [30] = test system: RXF-631 renal
# [31] = test system: ACHN renal
# [32] = test system: CCRF-CEM leukemia
# [33] = test system: HCT-15 colon
# [34] = test system: HT29 colon
# [35] = test system: OVCAR-8 ovarian
# [36] = test system: K-562 leukemia
# [37] = test system: UO-31 renal
# [38] = test system: DMS 114 small cell lung
# [39] = test system: SK-MEL-5 melanoma
# [40] = test system: HL-60(TB) leukemia
# [41] = test system: LOX IMVI melanoma
# [42] = test system: SW-620 colon
# [43] = test system: MALME-3M melanoma
# [44] = test system: SK-OV-3 ovarian
# [45] = test system: UACC-62 melanoma
# [46] = test system: NCI-H23 lung
# [47] = test system: A498 renal
# [48] = test system: DMS 273 small cell lung
# [49] = test system: SK-MEL-2 melanoma
# [50] = test system: UACC-257 melanoma
# [51] = test system: HCC-2998 colon
# [52] = test system: COLO 205 colon
# [53] = test system: SNB-78 CNS
# [54] = test system: SF-268 CNS
# [55] = test system: HOP-62 NSCLC
# [56] = test system: HOP-92 NSCLC
# [57] = test system: KM12 colon
# [58] = test system: SR leukemia
# [59] = test system: NCI-H522 lung
smiles,measurement,setting,value
CC(C(=O)c1ccc(Cl)cc1)/C(=N/NC(=O)NN)C(=O)Nc1cccc(C(F)(F)F)c1 (stereo not drawn),TGI,[1],> 100 µM
same,TGI,[2],> 100 µM
same,TGI,[3],> 100 µM
same,TGI,[4],> 100 µM
same,TGI,[5],> 100 µM
same,TGI,[6],> 100 µM
same,TGI,[7],> 100 µM
same,TGI,[8],> 100 µM
same,TGI,[9],> 100 µM
same,TGI,[10],> 100 µM
same,TGI,[11],> 100 µM
same,TGI,[12],> 100 µM
same,TGI,[13],> 100 µM
same,TGI,[14],> 100 µM
same,TGI,[15],> 100 µM
same,TGI,[16],> 100 µM
same,TGI,[17],> 100 µM
same,TGI,[18],> 100 µM
same,TGI,[19],> 100 µM
same,TGI,[20],> 100 µM
same,TGI,[21],> 100 µM
same,TGI,[22],> 100 µM
same,TGI,[23],> 100 µM
same,TGI,[24],> 100 µM
same,TGI,[25],> 100 µM
same,TGI,[26],> 100 µM
same,TGI,[27],> 100 µM
same,TGI,[28],> 100 µM
same,TGI,[29],> 100 µM
same,TGI,[30],> 100 µM
same,TGI,[31],> 100 µM
same,TGI,[32],> 100 µM
same,TGI,[33],> 100 µM
same,TGI,[34],> 100 µM
same,TGI,[35],> 100 µM
same,TGI,[36],> 100 µM
same,TGI,[37],> 100 µM
same,TGI,[38],> 100 µM
same,TGI,[39],> 100 µM
same,TGI,[40],> 100 µM
same,TGI,[41],> 100 µM
same,TGI,[42],> 100 µM
same,TGI,[43],> 100 µM
same,TGI,[44],> 100 µM
same,TGI,[45],> 100 µM
same,TGI,[46],> 100 µM
same,TGI,[47],> 100 µM
same,TGI,[48],> 100 µM
same,TGI,[49],> 100 µM
same,TGI,[50],> 100 µM
same,TGI,[51],> 100 µM
same,TGI,[52],> 100 µM
same,TGI,[53],> 100 µM
same,TGI,[54],> 100 µM
CCOCN1COCN(C)C1=O,TGI,[1],> 100 µM
same,TGI,[2],> 100 µM
same,TGI,[3],> 100 µM
same,TGI,[4],> 100 µM
same,TGI,[5],> 100 µM
same,TGI,[7],> 100 µM
same,TGI,[8],> 100 µM
same,TGI,[9],> 100 µM
same,TGI,[10],> 100 µM
same,TGI,[11],> 100 µM
same,TGI,[12],> 100 µM
same,TGI,[13],> 100 µM
same,TGI,[14],> 100 µM
same,TGI,[15],> 100 µM
same,TGI,[16],> 100 µM
same,TGI,[17],> 100 µM
same,TGI,[55],> 100 µM
same,TGI,[56],> 100 µM
same,TGI,[19],> 100 µM
same,TGI,[20],> 100 µM
same,TGI,[22],> 100 µM
same,TGI,[23],> 100 µM
same,TGI,[24],> 100 µM
same,TGI,[25],> 100 µM
same,TGI,[57],> 100 µM
same,TGI,[26],> 100 µM
same,TGI,[27],> 100 µM
same,TGI,[28],> 100 µM
same,TGI,[29],> 100 µM
same,TGI,[30],> 100 µM
same,TGI,[31],> 100 µM
same,TGI,[32],> 100 µM
same,TGI,[33],> 100 µM
same,TGI,[34],> 100 µM
same,TGI,[35],> 100 µM
same,TGI,[36],> 100 µM
same,TGI,[37],> 100 µM
same,TGI,[39],> 100 µM
same,TGI,[41],> 100 µM
same,TGI,[42],> 100 µM
same,TGI,[43],> 100 µM
same,TGI,[44],> 100 µM
same,TGI,[45],> 100 µM
same,TGI,[46],> 100 µM
same,TGI,[47],> 100 µM
same,TGI,[48],> 100 µM
same,TGI,[49],> 100 µM
same,TGI,[50],> 100 µM
same,TGI,[51],> 100 µM
same,TGI,[52],> 100 µM
same,TGI,[53],> 100 µM
same,TGI,[54],> 100 µM
O=C(CN(c1ccccc1)c1ccccc1)N1c2ccccc2C2C=CC=CC21 (stereo not drawn),TGI,[1],44.6 µM
same,TGI,[58],> 21.4 µM
same,TGI,[2],43.8 µM
same,TGI,[3],47.3 µM
same,TGI,[4],> 57.5 µM
same,TGI,[5],38.1 µM
same,TGI,[6],34.6 µM
same,TGI,[7],> 100 µM
same,TGI,[8],> 59.4 µM
same,TGI,[9],32.2 µM
same,TGI,[10],56.3 µM
same,TGI,[11],34.4 µM
same,TGI,[12],52.3 µM
same,TGI,[13],> 54.9 µM
same,TGI,[14],45.2 µM
same,TGI,[15],53.2 µM
same,TGI,[16],> 57.4 µM
same,TGI,[17],> 57.2 µM
same,TGI,[55],41.5 µM
same,TGI,[18],> 22.6 µM
same,TGI,[19],> 57.3 µM
same,TGI,[20],> 56 µM
same,TGI,[21],> 54.7 µM
same,TGI,[22],36.1 µM
same,TGI,[23],74.9 µM
same,TGI,[24],> 57.8 µM
same,TGI,[25],> 28.1 µM
same,TGI,[57],96.8 µM
same,TGI,[26],> 56.5 µM
same,TGI,[27],44.6 µM
same,TGI,[28],55.4 µM
same,TGI,[29],58.8 µM
same,TGI,[31],> 59.1 µM
same,TGI,[32],> 36.3 µM
same,TGI,[33],32.1 µM
same,TGI,[34],> 56.5 µM
same,TGI,[35],53.5 µM
same,TGI,[36],> 51.5 µM
same,TGI,[37],> 49.9 µM
same,TGI,[38],23.1 µM
same,TGI,[39],29.9 µM
same,TGI,[40],25.7 µM
same,TGI,[41],44.5 µM
same,TGI,[42],> 53.5 µM
same,TGI,[43],47.1 µM
same,TGI,[44],> 56.4 µM
same,TGI,[59],49 µM
same,TGI,[45],50.6 µM
same,TGI,[46],53.5 µM
same,TGI,[47],77.4 µM
same,TGI,[48],> 60.3 µM
same,TGI,[49],38.8 µM
same,TGI,[50],50.1 µM
same,TGI,[51],22.7 µM
same,TGI,[52],24.7 µM
same,TGI,[53],> 58.7 µM
same,TGI,[54],> 57 µM
